This passage reports IC50 results from ChEMBL document CHEMBL1201861, “Genomics of Drug Sensitity in Cancer screening data, Wellcome Trust Sanger Institute”.

One assay deals with HuTu80. In words: cells. To be noted: Homo sapiens, HuTu80. The assay is classed as functional, cell-based, Homo sapiens, HUTU-80.
The subject of another assay is NCI-H748. In words: cells. Type of assay: functional, cell-based, Homo sapiens. Particulars: Homo sapiens, NCI-H748.
Another assay deals with EW-22. In words: cells. Type of assay: functional, cell-based. To be noted: Homo sapiens.
The next assay has as its system BC1 cell line. In words: SANGER: Inhibition of human BC-1 cell growth in a cell viability assay. The assay is classed as functional, cell-based. To be noted: Homo sapiens, BC1.
A further assay has as its system TALL-1. In words: cells. Type of assay: functional, cell-based, Homo sapiens. Particulars: Homo sapiens, TALL-1.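 Also: growth inhibition of cultured human TALL-1 cells, read out by a cell viability assay.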
In a further assay the test system is KMS-12-PE. In words: cells. Type of assay: functional, cell-based, Homo sapiens. To be noted: Homo sapiens, KMS-12-PE.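 Also: growth inhibition of human KMS-12-PE cells, measured with a cell viability assay.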
A further assay has as its system MHH-CALL-2. In words: cells. Type of assay: functional, cell-based, Homo sapiens. Particulars: Homo sapiens, MHH-CALL-2.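 Also: growth inhibition of the cell line, read out in a cell viability assay.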
A further assay concerns RPMI-6666. In words: cells. The assay is classed as functional, cell-based, Homo sapiens. To be noted: Homo sapiens, RPMI-6666.
A further assay has as its system MRK-nu-1. In words: cells. The assay is classed as functional, cell-based, Homo sapiens. Particulars: Homo sapiens, MRK-nu-1.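 Also: cell viability assay measuring growth suppression of human MRK-nu-1 cells.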
The next assay relates to YT. In words: cells. Type of assay: functional, cell-based, Homo sapiens. To be noted: Homo sapiens, YT.
For a further assay, the system named is DMS-153. In words: cells. The assay is classed as functional, cell-based, Homo sapiens. Particulars: Homo sapiens, DMS-153.
Another assay deals with KARPAS-422. In words: cells. Type of assay: functional, cell-based, Homo sapiens. Particulars: Homo sapiens, KARPAS-422.
In the next assay the test system is P31-FUJ. In words: cells. The assay is classed as functional, cell-based, Homo sapiens. To be noted: Homo sapiens, P31-FUJ.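 Also: growth inhibition of P31-FUJ cells, read out with a viability assay.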
Another assay relates to TE-441-T. In words: cells. Type of assay: functional, cell-based, Homo sapiens. Particulars: Homo sapiens, TE-441-T.

The structures appear in SMILES notation.

Description for DMS-153: SANGER: Inhibition of human DMS-153 cell growth in a cell viability assay.
Description for EW-22: SANGER: Inhibition of human EW-22 cell growth in a cell viability assay.
Description for HuTu80: SANGER: Inhibition of human HUTU-80 cell growth in a cell viability assay.
Description for KARPAS-422: SANGER: Inhibition of human KARPAS-422 cell growth in a cell viability assay.
Description for KMS-12-PE: SANGER: Inhibition of human KMS-12-PE cell growth in a cell viability assay.
Description for MHH-CALL-2: SANGER: Inhibition of human MHH-CALL-2 cell growth in a cell viability assay.
Description for MRK-nu-1: SANGER: Inhibition of human MRK-nu-1 cell growth in a cell viability assay.
Description for NCI-H748: SANGER: Inhibition of human NCI-H748 cell growth in a cell viability assay.
Description for P31-FUJ: SANGER: Inhibition of human P31-FUJ cell growth in a cell viability assay.
Description for RPMI-6666: SANGER: Inhibition of human RPMI-6666 cell growth in a cell viability assay.
Description for TALL-1: SANGER: Inhibition of human TALL-1 cell growth in a cell viability assay.
Description for TE-441-T: SANGER: Inhibition of human TE-441-T cell growth in a cell viability assay.
Description for YT: SANGER: Inhibition of human YT cell growth in a cell viability assay.

What is called IC50 is the point on the concentration scale where inhibition reaches its midpoint. As to `CC(C)C[C@H](NC(=O)[C@H](Cc1ccccc1)NC(=O)c1cnccn1)B(O)O` [BORTEZOMIB], the IC50 with HuTu80 is 0.533 nM; in the assay with NCI-H748, 2.39 nM; with EW-22, above 20 nM; with BC1 cell line it was 2.31 nM; in the assay on TALL-1, above 20 nM; in the assay on KMS-12-PE, above 20 nM. For the same molecule, the IC50 in the assay with MHH-CALL-2, in the assay with RPMI-6666, in the assay on MRK-nu-1, with YT, in the assay on DMS-153 and in the assay on KARPAS-422 was above 20 nM throughout. In addition, the IC50 in the assay on P31-FUJ and with TE-441-T was above 20 nM in each case.
